# Experimental data: patent publication US20110071180A1, “SUB-TYPE SELECTIVE AMIDES OF DIAZABICYCLOALKANES” (Targacept, Inc., priority 2008, published 2011)
# Molecular target: T1, human α4β2 nAChR subtype (Homo sapiens, UniProt P17787+P43681)
# T1 construct: expressed in transfected cells; host or cells: SH-EP1 clonal cells expressing human α4β2
# Assay: Radioligand binding, [3H]nicotine, membranes from SH-EP1/human α4β2 clonal cells
# Details: [3H]nicotine 5 nM, SH-EP1/human α4β2 cell membranes
# Experimental: Preparation of membranes from SH-EP1/human α4β2 clonal cells: Cell pellets from 40 150 mm culture dishes were pooled, and homogenized by Polytron (Kinematica GmbH, Switzerland) in 20 milliliters of ice-cold preparative buffer. The homogenate was centrifuged at 48,000 g for 20 minutes at 4° C. The resulting pellet was re-suspended in 20 mL of ice-cold preparative buffer and stored at −20° C.
# (§1) On the day of the assay, the frozen membranes were thawed and spun at 48,000×g for 20 min. The supernatant was decanted and discarded. The pellet was resuspended in Dulbecco's phosphate buffered saline (PBS, Life Technologies) pH 7.4 and homogenized with the Polytron for 6 seconds. Protein concentrations were determined using a Pierce BCA Protein Assay Kit, with bovine serum albumin as the standard (Pierce Chemical Company, Rockford, Ill.).
# (§2) Membrane preparations (approximately 50 μg for human and 200-300 μg protein for rat α4β2) were incubated in PBS (50 μL and 100 μL respectively) in the presence of competitor compound (0.01 nM to 100 μM) and 5 nM [^3H]nicotine for 2-3 hours on ice. Incubation was terminated by rapid filtration on a multi-manifold tissue harvester (Brandel, Gaithersburg, Md.) using GF/B filters presoaked in 0.33% polyethyleneimine (w/v) to reduce non-specific binding. Tissue was rinsed 3 times in PBS, pH 7.4. Scintillation fluid was added to filters containing the washed tissue and allowed to equilibrate. Filters were then counted to determine radioactivity bound to the membranes by liquid scintillation counting (2200CA Tri-Carb LSC, Packard Instruments, 50% efficiency or Wallac Trilux 1450 MicroBeta, 40% efficiency, Perkin Elmer).
# (§3) Data were expressed as disintegrations per minute (DPMs). Within each assay, each point had 2-3 replicates. The replicates for each point were averaged and plotted against the log of the drug concentration. IC50, which is the concentration of the compound that produces 50% inhibition of binding, was determined by least squares non-linear regression. Ki values were calculated using the Cheng-Prussof equation (1973): […]
# T1 sequence (P43681 29-627 limits assumed): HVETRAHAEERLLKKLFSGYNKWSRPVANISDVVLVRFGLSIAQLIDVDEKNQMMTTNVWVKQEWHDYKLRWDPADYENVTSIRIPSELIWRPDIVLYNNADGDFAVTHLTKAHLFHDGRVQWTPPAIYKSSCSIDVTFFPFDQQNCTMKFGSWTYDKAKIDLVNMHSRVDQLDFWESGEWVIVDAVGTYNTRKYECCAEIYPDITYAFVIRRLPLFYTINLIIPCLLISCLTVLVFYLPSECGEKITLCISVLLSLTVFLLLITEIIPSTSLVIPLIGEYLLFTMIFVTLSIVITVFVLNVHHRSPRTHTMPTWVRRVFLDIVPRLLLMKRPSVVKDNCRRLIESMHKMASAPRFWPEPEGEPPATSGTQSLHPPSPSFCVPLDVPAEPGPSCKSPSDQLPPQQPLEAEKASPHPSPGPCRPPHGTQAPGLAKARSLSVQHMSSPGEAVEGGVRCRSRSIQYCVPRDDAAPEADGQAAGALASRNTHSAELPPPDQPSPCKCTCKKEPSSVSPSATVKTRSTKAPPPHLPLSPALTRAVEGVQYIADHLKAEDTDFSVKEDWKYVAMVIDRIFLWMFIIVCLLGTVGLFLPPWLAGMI
# T1 sequence (P17787 26-502): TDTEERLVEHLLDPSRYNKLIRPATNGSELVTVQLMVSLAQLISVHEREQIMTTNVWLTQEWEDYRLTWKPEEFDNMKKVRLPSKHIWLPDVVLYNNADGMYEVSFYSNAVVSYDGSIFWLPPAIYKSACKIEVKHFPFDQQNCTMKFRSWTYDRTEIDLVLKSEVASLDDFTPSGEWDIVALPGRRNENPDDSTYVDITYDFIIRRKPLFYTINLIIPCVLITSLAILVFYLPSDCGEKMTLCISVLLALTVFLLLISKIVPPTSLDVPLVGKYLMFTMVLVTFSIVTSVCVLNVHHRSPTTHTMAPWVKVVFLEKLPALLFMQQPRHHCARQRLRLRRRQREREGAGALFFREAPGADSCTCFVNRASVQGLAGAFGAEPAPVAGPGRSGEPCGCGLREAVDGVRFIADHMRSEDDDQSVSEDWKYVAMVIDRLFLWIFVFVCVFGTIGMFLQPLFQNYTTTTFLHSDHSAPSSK
row,SMILES,Ki
1,CC(C)(F)C(=O)N1CC2CNCC(C2)C1 [Example 10-91],139 nM
2,O=C([C@H]1C[C@H]1F)N1CC2CNCC(C2)C1 [Example 10-92],7.3 nM
3,O=C(C1CC2CCC1C2)N1CC2CNCC(C2)C1 (stereo not shown) [Example 10-93],35.3 nM
4,O=C(C1CC2C=CC1C2)N1CC2CNCC(C2)C1 (stereo not shown) [Example 10-94],12.6 nM
5,O=C([C@@H]1CC2C=CC1C2)N1CC2CNCC(C2)C1 (stereo partly shown) [Example 10-95],2.2 nM
6,O=C(C1CCC[C@H]1O)N1CC2CNCC(C2)C1 (stereo partly shown) [Example 10-96],731 nM
7,O=C(C1C2CCCCC21)N1CC2CNCC(C2)C1 (stereo not shown) [Example 10-97],64.1 nM
8,O=C(C1CC=CCC1)N1CC2CNCC(C2)C1 (stereo not shown) [Example 10-98],134 nM
9,O=C(Cn1ccnc1)N1CC2CNCC(C2)C1 [Example 10-99],821 nM
10,O=C(C1C[C@H]2C=C[C@@H]1CC2)N1CC2CNCC(C2)C1 (stereo partly shown) [Example 10-100],72.4 nM
11,O=C(C1CC=CCC1c1cccnc1)N1CC2CNCC(C2)C1 (stereo not shown) [Example 10-101],69.6 nM

# Molecular target: T2, α7 nAChR subtype (Rattus norvegicus, UniProt Q05941)
# T2 construct: The hippocampus was removed and placed in 10 volumes (weight:volume) of ice-cold preparative buffer; from tissue; host or cells: rat hippocampus membranes (female Sprague-Dawley)
# T2 sequence (Q05941 23-502): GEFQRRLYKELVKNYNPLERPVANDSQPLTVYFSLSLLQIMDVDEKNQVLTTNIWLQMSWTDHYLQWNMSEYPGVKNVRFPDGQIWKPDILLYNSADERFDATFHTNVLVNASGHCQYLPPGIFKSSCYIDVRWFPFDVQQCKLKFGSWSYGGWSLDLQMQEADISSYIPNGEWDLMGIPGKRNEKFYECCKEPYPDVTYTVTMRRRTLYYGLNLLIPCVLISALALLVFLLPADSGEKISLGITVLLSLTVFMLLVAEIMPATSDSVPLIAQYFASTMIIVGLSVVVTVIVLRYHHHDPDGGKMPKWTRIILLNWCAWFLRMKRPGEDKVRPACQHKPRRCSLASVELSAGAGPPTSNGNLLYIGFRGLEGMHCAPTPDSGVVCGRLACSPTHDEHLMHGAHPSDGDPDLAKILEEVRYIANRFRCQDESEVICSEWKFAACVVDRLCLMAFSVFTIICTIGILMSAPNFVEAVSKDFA
# Assay: Radioligand binding, [3H]MLA, rat hippocampus membranes
# Details: [3H]MLA 5 nM, rat hippocampus membranes; read-out: α7 Ki
# Experimental: Rats (female, Sprague-Dawley), weighing 150-250 g, were maintained on a 12 h light/dark cycle and were allowed free access to water and food supplied by PMI Nutrition International, Inc. Animals were anesthetized with 70% CO2, then decapitated. Brains were removed and placed on an ice-cold platform. The hippocampus was removed and placed in 10 volumes (weight:volume) of ice-cold preparative buffer (137 mM NaCl, 10.7 mM KCl, 5.8 mM KH2PO4, 8 mM Na2HPO4, 20 mM HEPES (free acid), 5 mM iodoacetamide, 1.6 mM EDTA, pH 7.4); PMSF, dissolved in methanol to a final concentration of 100 μM, was added and the tissue suspension was homogenized by Polytron. The homogenate was centrifuged at 18,000×g for 20 min at 4° C. and the resulting pellet was re-suspended in 10 volumes of ice-cold water. After 60 min incubation on ice, a new pellet was collected by centrifugation at 18,000×g for 20 min at 4° C. The final pellet was re-suspended in 10 volumes of buffer and stored at −20° C. On the day of the assay, tissue was thawed, centrifuged at 18,000×g for 20 min, and then re-suspended in ice-cold PBS (Dulbecco's Phosphate Buffered Saline, 138 mM NaCl, 2.67 mM KCl, 1.47 mM KH2PO4, 8.1 mM Na2HPO4, 0.9 mM CaCl2, 0.5 mM MgCl2, Invitrogen/Gibco, pH 7.4) to a final concentration of approximately 2 mg protein/mL. Protein was determined by the method of Lowry et al., J. Biol. Chem. 193: 265 (1951), using bovine serum albumin as the standard.
# The binding of [^3H]MLA was measured using a modification of the methods of Davies et al., Neuropharmacol. 38: 679 (1999). [^3H]MLA (Specific Activity=25-35 Ci/mmol) was obtained from Tocris. The binding of [^3H]MLA was determined using a 2 h incubation at 21° C. Incubations were conducted in 48-well micro-titre plates and contained about 200 μg of protein per well in a final incubation volume of 300 μL. The incubation buffer was PBS and the final concentration of [^3H]MLA was 5 nM. The binding reaction was terminated by filtration of the protein containing bound ligand onto glass fiber filters (GF/B, Brandel) using a Brandel Tissue Harvester at room temperature. Filters were soaked in de-ionized water containing 0.33% polyethyleneimine to reduce non-specific binding. Each filter was washed with PBS (3×1 mL) at room temperature. Non-specific binding was determined by inclusion of 50 μM non-radioactive MLA in selected wells.
# The inhibition of [^3H]MLA binding by test compounds was determined by including seven different concentrations of the test compound in selected wells. Each concentration was replicated in triplicate. IC50 values were estimated as the concentration of compound that inhibited 50 percent of specific [^3H]MLA binding. Inhibition constants (Ki values), reported in nM, were calculated from the IC50 values using the method of Cheng et al., Biochem. Pharmacol. 22: 3099-3108 (1973).
row,SMILES,Ki
1,O=C(C1CC=CCC1)N1CC2CNCC(C2)C1 (stereo not shown) [Example 10-98],794 nM

# Same assay, conditions: read-out: α7 high through-put screening (HTS) result
row,SMILES,inhibition at 5 µM
1,CC(C)(F)C(=O)N1CC2CNCC(C2)C1 [Example 10-91],< 50%
2,O=C(C1CC2CCC1C2)N1CC2CNCC(C2)C1 (stereo not shown) [Example 10-93],< 50%
3,O=C(C1CC2C=CC1C2)N1CC2CNCC(C2)C1 (stereo not shown) [Example 10-94],< 50%
4,O=C([C@@H]1CC2C=CC1C2)N1CC2CNCC(C2)C1 (stereo partly shown) [Example 10-95],< 50%
5,O=C(C1CCC[C@H]1O)N1CC2CNCC(C2)C1 (stereo partly shown) [Example 10-96],< 50%
6,O=C(C1C2CCCCC21)N1CC2CNCC(C2)C1 (stereo not shown) [Example 10-97],< 50%
7,O=C(Cn1ccnc1)N1CC2CNCC(C2)C1 [Example 10-99],< 50%
8,O=C(C1C[C@H]2C=C[C@@H]1CC2)N1CC2CNCC(C2)C1 (stereo partly shown) [Example 10-100],< 50%
9,O=C(C1CC=CCC1c1cccnc1)N1CC2CNCC(C2)C1 (stereo not shown) [Example 10-101],< 50%

# Same assay, conditions: α7 Ki
row,SMILES,Ki
1,O=C([C@H]1C[C@H]1F)N1CC2CNCC(C2)C1 [Example 10-92],360 nM

# System: rats
# Assay: Novel object recognition (NOR) task
# Format: in vivo, rat
# Details: oral, 0.3 mg/kg
# Experimental: FIG. 1 is a chart showing the results of a study on object recognition in rats treated orally with N-(propanoyl)-3,7-diazabicyclo[3.3.0]octane. The results are shown as a function of recognition index (%) versus dose (mg/kg). N-(Propanoyl)-3,7-diazabicyclo[3.3.0]octane is active orally in rats at 0.3 mg/kg in novel object recognition (NOR) task.
# The novel object recognition (NOR) task was performed in accord with the description of Ennaceur and Delacour Behav. Brain Res. 100: 85-92 (1988).
# Certain exemplified compounds were assessed in the NOR task. Thus, N-(propanoyl)-3,7-diazabicyclo[3.3.0]octane (Compound 10-16, Table 1) was active in NOR in rats, at […]. This provides evidence of the efficacy (and potency) of the compounds of the present invention in treating cognitive deficits, attentional disorders and dementias, and the potential of these compounds for human therapy.
row,SMILES,activity in novel object recognition (NOR) task (recognition index)
1,"CCC(=O)N1CC2CNCC2C1 (stereo not shown) [Example 10-16, N-(propanoyl)-3,7-diazabicyclo[3.3.0]octane]",active

# Molecular target: T3, rat α4β2 nAChR subtype (Rattus norvegicus, UniProt P09483+P12390)
# T3 construct: The cerebral cortex was removed and placed in 20 volumes (weight:volume) of ice-cold preparative buffer; from tissue; host or cells: rat cerebral cortex membranes (female Sprague-Dawley)
# T3 sequence (P09483 31-630): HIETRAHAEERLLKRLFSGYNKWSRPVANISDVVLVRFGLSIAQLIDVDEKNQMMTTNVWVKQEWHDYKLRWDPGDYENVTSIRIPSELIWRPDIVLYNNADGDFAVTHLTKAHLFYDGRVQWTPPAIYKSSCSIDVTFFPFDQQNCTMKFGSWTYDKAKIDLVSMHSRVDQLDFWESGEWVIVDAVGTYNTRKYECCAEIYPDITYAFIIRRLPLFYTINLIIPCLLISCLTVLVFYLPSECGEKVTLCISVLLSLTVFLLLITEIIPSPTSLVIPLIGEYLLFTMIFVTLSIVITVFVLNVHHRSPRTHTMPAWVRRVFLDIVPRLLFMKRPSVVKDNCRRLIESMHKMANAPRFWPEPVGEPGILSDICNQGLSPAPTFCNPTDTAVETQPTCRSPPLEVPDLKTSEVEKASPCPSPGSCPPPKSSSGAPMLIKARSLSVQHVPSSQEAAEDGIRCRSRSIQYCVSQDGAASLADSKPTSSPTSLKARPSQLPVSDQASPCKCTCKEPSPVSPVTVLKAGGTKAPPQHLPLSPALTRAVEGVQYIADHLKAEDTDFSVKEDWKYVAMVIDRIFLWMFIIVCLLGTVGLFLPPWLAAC
# T3 sequence (P12390 25-500): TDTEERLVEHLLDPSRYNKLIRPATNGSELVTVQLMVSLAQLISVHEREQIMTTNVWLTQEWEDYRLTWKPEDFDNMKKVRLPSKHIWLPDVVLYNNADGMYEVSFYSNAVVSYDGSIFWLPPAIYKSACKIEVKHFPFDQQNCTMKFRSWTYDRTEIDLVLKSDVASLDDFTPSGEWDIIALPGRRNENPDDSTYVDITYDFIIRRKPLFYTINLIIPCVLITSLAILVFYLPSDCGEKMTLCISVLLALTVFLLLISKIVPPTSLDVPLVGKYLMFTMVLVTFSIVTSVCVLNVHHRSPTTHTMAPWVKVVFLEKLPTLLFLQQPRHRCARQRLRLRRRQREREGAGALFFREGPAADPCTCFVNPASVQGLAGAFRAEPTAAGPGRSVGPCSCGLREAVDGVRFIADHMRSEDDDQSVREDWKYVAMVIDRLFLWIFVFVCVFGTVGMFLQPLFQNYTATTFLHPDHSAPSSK
# Assay: Radioligand binding, [3H]nicotine, rat cortex membranes
# Details: [3H]nicotine 5 nM
# Experimental: Preparation of Membranes from Rat Cortex: Rats (Female, Sprague-Dawley), weighing 150-250 g, were maintained on a 12 h light/dark cycle and were allowed free access to water and food supplied by PMI Nutrition International, Inc. Animals were anesthetized with 70% CO2, and then decapitated. Brains were removed and placed on an ice-cold platform. The cerebral cortex was removed and placed in 20 volumes (weight:volume) of ice-cold preparative buffer (137 mM NaCl, 10.7 mM KCl, 5.8 mM KH2PO4, 8 mM Na2HPO4, 20 mM HEPES (free acid), 5 mM iodoacetamide, 1.6 mM EDTA, pH 7.4); PMSF, dissolved in methanol to a final concentration of 100 μM, was added and the suspension was homogenized by Polytron. The homogenate was centrifuged at 18,000×g for 20 min at 4° C. and the resulting pellet was re-suspended in 20 volumes of ice-cold water. After 60 min incubation on ice, a new pellet was collected by centrifugation at 18,000×g for 20 min at 4° C. The final pellet was re-suspended in 10 volumes of buffer and stored at −20° C.
# as §1, §2, §3
row,SMILES,Ki
1,CC(C)(F)C(=O)N1CC2CNCC(C2)C1 [Example 10-91],342 nM
2,O=C([C@H]1C[C@H]1F)N1CC2CNCC(C2)C1 [Example 10-92],15.9 nM
3,O=C(C1CC2CCC1C2)N1CC2CNCC(C2)C1 (stereo not shown) [Example 10-93],49.7 nM
4,O=C(C1CC2C=CC1C2)N1CC2CNCC(C2)C1 (stereo not shown) [Example 10-94],22.7 nM
5,O=C([C@@H]1CC2C=CC1C2)N1CC2CNCC(C2)C1 (stereo partly shown) [Example 10-95],4.9 nM
6,O=C(C1CCC[C@H]1O)N1CC2CNCC(C2)C1 (stereo partly shown) [Example 10-96],776 nM
7,O=C(C1CC=CCC1)N1CC2CNCC(C2)C1 (stereo not shown) [Example 10-98],198 nM
8,O=C(Cn1ccnc1)N1CC2CNCC(C2)C1 [Example 10-99],1320 nM
9,O=C(C1C[C@H]2C=C[C@@H]1CC2)N1CC2CNCC(C2)C1 (stereo partly shown) [Example 10-100],256 nM
10,O=C(C1CC=CCC1c1cccnc1)N1CC2CNCC(C2)C1 (stereo not shown) [Example 10-101],602 nM

# Molecular target: T3, rat α4β2 nAChR subtype
# Assay: as above
# Details: 5 μM compound, 5 nM 3H-nicotine; Ki not determined
row,SMILES,Rat α4β2 high through-put screening (HTS) result
1,O=C(C1C2CCCCC21)N1CC2CNCC(C2)C1 (stereo not shown) [Example 10-97],"ND; failed HTS (the compound failed to inhibit, at 5 μM concentration, the binding of 5 nM ^3H-nicotine by at least 50%)"
